Reference: patent US10953100B2, “Compounds and therapeutic uses thereof” (priority 2015, dated 2021)

The molecules below were run against Anti-alpha galactosyl IgG antibody (assay: ELISA assay: streptavidin-captured biotin compound, binding of anti-alpha galactosyl IgG antibody). Settings: geometric mean with standard error in brackets; streptavidin plate, anti-alpha galactosyl IgG 0.5 μg/mL; read-out: Concentration at half maximal binding.
Design: species or system human
Experimental: Compounds containing F (representing a carbohydrate molecule capable of binding to a human anti-alpha-galactosyl antibody) and L (as biotin) were assayed for binding at both ends of the compound using an enzyme-linked immunosorbent assay (ELISA). Streptavidin-coated plates captured biotin to the surface of the plate and the binding of anti-alpha galactosyl antibodies to the alpha-galactosyl moiety was reported by a secondary antibody labelled with HRP (Horse Radish Peroxidase).
Compounds were titrated 1.5 fold from a top dose of 50 nM in phosphate buffered saline (PBS) (Sigma D8537)+0.025% DMSO (Dimethyl Sulphoxide, Sigma D8418). Streptavidin immobilizer 96-well plates (nunc 436014) were coated with 100 μL of compound at room temperature for 2 hours shaking at 500 rpm. Plates were washed with 2×200 μL PBS-T (PBS with 0.05% Tween 20 (Sigma P9416)) and 1×200 μL PBS-T with a 5 minute incubation shaking at room temperature, prior to being blocked for 1 hour at room temperature with 1% Bovine Serum Albumin (BSA, Sigma A2153) in PBS-T. After removing the blocking buffer, 50 μL of Anti-alpha galactosyl IgG antibody (Anti-alpha-galactosyl antibody was purified from human IVIG (Gammagard) by affinity purification using an alpha-galactosyl-HSA (Human Serum Albumin) sepharose column by Rockland Immunochemicals Inc.) at 0.5 μg/mL in PBS-T+1% BSA and incubated shaking at room temperature for 1 hour.
Plates were washed 2×200 μL PBS-T and 3×200 μL PBS-T with a 5 minute incubation, shaking at room temperature before the addition of 50 μL 1:5000 Goat Anti-Human IgG-HRP (horseradish peroxidase) conjugate (Abcam ab97175). The plates were incubated shaking at room temperature for 1 hour before a final wash of 2×200 μL PBS-T and 3×200 μl PBS-T with a 5 minute incubation shaking at room temperature. 100 μL TMB buffer (3,3′,5,5′-tetramethylbenzidine, a chromogenic substrate for horseradish peroxidase) (Pierce 34021) was added to the plate and allowed to develop for 5-10 minutes before the samples were quenched with 50 μL 2M sulfuric acid (Sigma 258105). The absorbance was read at 450 nm on an Envision plate reader (Perkin Elmer). Results from wells (duplicate) were averaged and the 50% binding affinity calculated.
The concentration at which half-maximal binding is achieved is reported as a geometric mean with standard error in brackets. The number of independent experiments is also reported. In order to achieve a signal both ends of the molecule are required to bind (biotin to streptavidin and alpha-galactosyl to anti-alpha galactosyl antibodies) simultaneously.

Q: Which EC50 does the source give for CC(=O)N[C@H]1[C@H](OCCCNC(=O)COc2ccc(C(=O)NCCNC(=O)CCCC[C@@H]3SC[C@@H]4NC(=O)N[C@@H]43)cc2)O[C@H](CO)[C@@H](O[C@@H]2O[C@H](CO)[C@H](O)[C@H](O[C@H]3O[C@H](CO)[C@H](O)[C@H](O)[C@H]3O)[C@H]2O)[C@@H]1O [Example 8, 4-(2-((3-(((2R,3R,4R,5S,6R)-3-Acetamido-5-(((2S,3R,4S,5S,6R)-3,5-dihydroxy-6-(hydroxymethyl)-4-(((2R,3R,4S,5R,6R)-3,4,5-trihydroxy-6-(hydroxymethyl)tetrahydro-2H-pyran-2-yl)oxy)tetrahydro-2H-pyran-2-yl)oxy)-4-hydroxy-6-(hydroxymethyl)tetrahydro-2H-pyran-2-yl)oxy)propyl)amino)-2-oxoethoxy)-N-(2-(5-((3aS,4S,6aR)-2-oxohexahydro-1H-thieno[3,4-d]imidazol-4-yl)pentanamido)ethyl)benzamide] here?
A: 28.8 nM

Q: How did the EC50 turn out when CC(=O)N[C@H]1[C@H](OCCCNC(=O)COc2cc(OCC(=O)NCCCO[C@@H]3O[C@H](CO)[C@@H](O[C@@H]4O[C@H](CO)[C@H](O)[C@H](O[C@H]5O[C@H](CO)[C@H](O)[C@H](O)[C@H]5O)[C@H]4O)[C@H](O)[C@H]3NC(C)=O)cc(-c3cc(C(=O)NCCNC(=O)CCCC[C@@H]4SC[C@@H]5NC(=O)N[C@@H]54)c(OCC(=O)NCCCO[C@@H]4O[C@H](CO)[C@@H](O[C@@H]5O[C@H](CO)[C@H](O)[C@H](O[C@H]6O[C@H](CO)[C@H](O)[C@H](O)[C@H]6O)[C@H]5O)[C@H](O)[C@H]4NC(C)=O)cc3OCC(=O)NCCCO[C@@H]3O[C@H](CO)[C@@H](O[C@@H]4O[C@H](CO)[C@H](O)[C@H](O[C@H]5O[C@H](CO)[C@H](O)[C@H](O)[C@H]5O)[C@H]4O)[C@H](O)[C@H]3NC(C)=O)c2)O[C@H](CO)[C@@H](O[C@@H]2O[C@H](CO)[C@H](O)[C@H](O[C@H]3O[C@H](CO)[C@H](O)[C@H](O)[C@H]3O)[C@H]2O)[C@@H]1O [Example 9] was run?
A: 10.1 nM

Q: How did the EC50 turn out when CC(=O)N[C@H]1[C@H](OCCCNC(=O)COc2cc(C(=O)NCCNC(=O)CCCC[C@@H]3SC[C@@H]4NC(=O)N[C@@H]43)nc3ccccc23)O[C@H](CO)[C@@H](O[C@@H]2O[C@H](CO)[C@H](O)[C@H](O[C@H]3O[C@H](CO)[C@H](O)[C@H](O)[C@H]3O)[C@H]2O)[C@@H]1O [Example 10, 4-(2-((3-(((2R,3R,4R,5S,6R)-3-Acetamido-5-(((2S,3R,4S,5S,6R)-3,5-dihydroxy-6-(hydroxymethyl)-4-(((2R,3R,4S,5R,6R)-3,4,5-trihydroxy-6-(hydroxymethyl)tetrahydro-2H-pyran-2-yl)oxy)tetrahydro-2H-pyran-2-yl)oxy)-4-hydroxy-6-(hydroxymethyl)tetrahydro-2H-pyran-2-yl)oxy)propyl)amino)-2-oxoethoxy)-N-(2-(5-((3aS,4S,6aR)-2-oxohexahydro-1H-thieno[3,4-d]imidazol-4-yl)pentanamido)ethyl)quinoline-2-carboxamide] was run?
A: 25.7 nM

Q: For CC(=O)N[C@H]1[C@H](OCCCNC(=O)c2cccc(OCC(=O)NCCNC(=O)CCCC[C@@H]3SC[C@@H]4NC(=O)N[C@@H]43)c2)O[C@H](CO)[C@@H](O[C@@H]2O[C@H](CO)[C@H](O)[C@H](O[C@H]3O[C@H](CO)[C@H](O)[C@H](O)[C@H]3O)[C@H]2O)[C@@H]1O [Example 4, N-(3-(((2R,3R,4R,5S,6R)-3-Acetamido-5-(((2S,3R,4S,5S,6R)-3,5-dihydroxy-6-(hydroxymethyl)-4-(((2R,3R,4S,5R,6R)-3,4,5-trihydroxy-6-(hydroxymethyl)tetrahydro-2H-pyran-2-yl)oxy)tetrahydro-2H-pyran-2-yl)oxy)-4-hydroxy-6-(hydroxymethyl)tetrahydro-2H-pyran-2-yl)oxy)propyl)-3-(2-oxo-2-((2-(5-((3aS,4S,6aR)-2-oxohexahydro-1H-thieno[3,4-d]imidazol-4-yl)pentanamido)ethyl)amino)ethoxy)benzamide], which EC50 is on record?
A: 13.1 nM

Q: CC(=O)NC1C(OCCCNC(=O)COc2ccc(-c3cc(OCC(=O)NCCCOC4OC(CO)C(OC5OC(CO)C(O)C(OC6OC(CO)C(O)C(O)C6O)C5O)C(O)C4NC(C)=O)cc(C(=O)NCCNC(=O)CCOCCOCCOCCOCCOCCOCCOCCOCCOCCOCCOCCOCCNC(=O)CCCCC4SCC5NC(=O)NC54)c3)cc2)OC(CO)C(OC2OC(CO)C(O)C(OC3OC(CO)C(O)C(O)C3O)C2O)C1O (centres unmarked) [Example 15] was tested. Which EC50 did it give?
A: 11.5 nM

Q: CC(=O)NC1C(OCCCNC(=O)CCOCCOCCOCCOCCOCCOCCOCCOCCOCCOCCOCCOCCNC(=O)COc2ccc(-c3cc(OCC(=O)NCCOCCOCCOCCOCCOCCOCCOCCOCCOCCOCCOCCOCCC(=O)NCCCOC4OC(CO)C(OC5OC(CO)C(O)C(OC6OC(CO)C(O)C(O)C6O)C5O)C(O)C4NC(C)=O)cc(C(=O)NCCNC(=O)CCCCC4SCC5NC(=O)NC54)c3)cc2)OC(CO)C(OC2OC(CO)C(O)C(OC3OC(CO)C(O)C(O)C3O)C2O)C1O (centres unmarked) [Example 49] was tested. Which EC50 did it give?
A: 26.4 nM

Q: With CC(=O)NC1C(OCCCNC(=O)COc2cc(OCC(=O)NCCCOC3OC(CO)C(OC4OC(CO)C(O)C(OC5OC(CO)C(O)C(O)C5O)C4O)C(O)C3NC(C)=O)cc(-c3cc(OCC(=O)NCCCOC4OC(CO)C(OC5OC(CO)C(O)C(OC6OC(CO)C(O)C(O)C6O)C5O)C(O)C4NC(C)=O)cc(C(=O)NCCNC(=O)CCOCCOCCOCCOCCOCCOCCOCCOCCOCCOCCOCCOCCNC(=O)CCCCC4SCC5NC(=O)NC54)c3)c2)OC(CO)C(OC2OC(CO)C(O)C(OC3OC(CO)C(O)C(O)C3O)C2O)C1O (centres unmarked) [Example 16] as the molecule, how does the EC50 read?
A: 8.4 nM

Q: With CC(=O)NC1C(OCCCNC(=O)CCOCCOCCOCCOCCOCCOCCOCCOCCOCCOCCOCCOCCNC(=O)COc2cc(OCC(=O)NCCOCCOCCOCCOCCOCCOCCOCCOCCOCCOCCOCCOCCC(=O)NCCCOC3OC(CO)C(OC4OC(CO)C(O)C(OC5OC(CO)C(O)C(O)C5O)C4O)C(O)C3NC(C)=O)cc(-c3cc(OCC(=O)NCCOCCOCCOCCOCCOCCOCCOCCOCCOCCOCCOCCOCCC(=O)NCCCOC4OC(CO)C(OC5OC(CO)C(O)C(OC6OC(CO)C(O)C(O)C6O)C5O)C(O)C4NC(C)=O)cc(C(=O)NCCNC(=O)CCOCCOCCOCCOCCOCCOCCOCCOCCOCCOCCOCCOCCNC(=O)CCCCC4SCC5NC(=O)NC54)c3)c2)OC(CO)C(OC2OC(CO)C(O)C(OC3OC(CO)C(O)C(O)C3O)C2O)C1O (centres unmarked) [Example 57] as the molecule, how does the EC50 read?
A: 15.4 nM

Q: Which EC50 does the source give for CC(=O)NC1C(OCCCNC(=O)CCOCCOCCOCCOCCNC(=O)COc2cccc(C(=O)NCCNC(=O)CCOCCOCCOCCOCCOCCOCCOCCOCCOCCOCCOCCOCCNC(=O)CCCCC3SCC4NC(=O)NC43)c2)OC(CO)C(OC2OC(CO)C(O)C(OC3OC(CO)C(O)C(O)C3O)C2O)C1O (centres unmarked) [Example 19] here?
A: 11.8 nM

Q: Which EC50 does the source give for CC(=O)N[C@H]1[C@H](OCCCNC(=O)COc2cc(OCC(=O)NCCCO[C@@H]3O[C@H](CO)[C@@H](O[C@@H]4O[C@H](CO)[C@H](O)[C@H](O[C@H]5O[C@H](CO)[C@H](O)[C@H](O)[C@H]5O)[C@H]4O)[C@H](O)[C@H]3NC(C)=O)cc(-c3cc(OCC(=O)NCCCO[C@@H]4O[C@H](CO)[C@@H](O[C@@H]5O[C@H](CO)[C@H](O)[C@H](O[C@H]6O[C@H](CO)[C@H](O)[C@H](O)[C@H]6O)[C@H]5O)[C@H](O)[C@H]4NC(C)=O)cc(C(=O)NCCNC(=O)CCCC[C@@H]4SC[C@@H]5NC(=O)N[C@@H]54)c3)c2)O[C@H](CO)[C@@H](O[C@@H]2O[C@H](CO)[C@H](O)[C@H](O[C@H]3O[C@H](CO)[C@H](O)[C@H](O)[C@H]3O)[C@H]2O)[C@@H]1O [Example 1] here?
A: 8.2 nM

Q: Which EC50 does the source give for CC(=O)NC1C(OCCCNC(=O)COc2cccc(C(=O)NCCNC(=O)CCOCCOCCOCCOCCOCCOCCOCCOCCOCCOCCOCCOCCNC(=O)CCCCC3SCC4NC(=O)NC43)c2)OC(CO)C(OC2OC(CO)C(O)C(OC3OC(CO)C(O)C(O)C3O)C2O)C1O (centres unmarked) [Example 3] here?
A: 15 nM
